Data as given in patent US12490760B2, “Compound and flavor-imparting composition using same” (T. HASEGAWA CO., LTD., priority 2021, dated 2025).

How the values were obtained:
[1] = Stability in sugar-acid solution, quantified by GC/MS internal standard method; format: physicochemical; details: 0.1% in sugar-acid solution (7% granulated sugar, 0.12% citric acid); room temperature (25° C.), 8 weeks, light shielding
Procedure: A stability of the present compound was evaluated by the following procedure. An aqueous solution including 7% granulated sugar and 0.12% citric acid (hereinafter, which may be referred to as a sugar-acid solution) was prepared. To this sugar-acid solution, the present invention product 1-1 was added so that the concentration was 0.1% to obtain the present invention product 3-1. As a comparative reference to the present compound, citral was added to a separately prepared sugar-acid solution so that the concentration was 0.1% to obtain the comparative product 3-1. Then, the present invention product 3-1 and the comparative product 3-1 were stored at room temperature (25° C.) for 8 weeks under light shielding. On the present invention product 3-1 and the comparative product 3-1, the present compound and citral were quantitatively analyzed by the internal standard method by using 2-chlorophenol as an internal standard substance under the following GC analysis conditions. The measurements were performed by using a GC/MS (apparatus name: GC 7890A/MSD 5975C, manufactured by Agilent Technologies Japan, Ltd.). […]

[2] = Detecting threshold concentration; details: compared with citral
[3] = Aroma properties: 1% ethanol solutions sniffed by panelists; details: 1% ethanol solution; sniffed by 5 well-trained panelists; representative comments
Procedure: An aroma of the present compound was evaluated by the following procedure. A 1% ethanol solution of the present invention product 1-1 was prepared and used as the present invention product 2-1. As a comparative reference to the present compound, a 1% ethanol solution of citral was prepared and used as the comparative product 2-1, and a 1% ethanol solution of 4,8-dimethylnona-3,7-dien-2-one was prepared and used as the comparative product 2-2. 5 well-trained panelists having 10 years or more of experience sniffed at the present invention product 2-1 and the comparative products 2-1 and 2-2, and commented on felt aromas.

Structure (SMILES) | concentration after storage relative to the initial concentration [1] | detecting threshold concentration [2] | Comment (felt aromas) [3]
CC(C)=CCCC(C)=CC=O [citral, reference compound] | completely disappeared | – | –
C=C(CCC=C(C)C)CC(C)=O [present compound, 8-methyl-4-methylenenona-7-en-2-one] | 90% | the same level as that of citral | does not have the aspect of floral aromas
